The source of these data is patent US20240150377A1, “MODULATORS OF CYSTIC FIBROSIS TRANSMEMBRANE CONDUCTANCE REGULATOR” (VERTEX PHARMACEUTICALS INCORPORATED, priority 2020, published 2024).

This experiment concerns the target CFTR (Homo sapiens, UniProt P13569). In words: Membrane potential dye, Enteroid Assay B. To be noted: for EC50: read-out: Ent. B EC50; for Ent. B Max Activity: chloride transport as % of triple combination control (Enteroid Assay B). In kind it is cell-based. The procedure: Base medium (ADF+++) consisted of Advanced DMEM/Ham's F12, 2 mM Glutamax, 10 mM HEPES, […] penicillin/streptomycin.
Intestinal enteroid maintenance medium (IEMM) consisted of ADF+++, 1× B27 supplement, 1× N2 supplement, 1.25 mM N-acetyl cysteine, 10 mM Nicotinamide, 50 ng/mL hEGF, 10 nM Gastrin, 1 μg/mL hR-spondin-1, 100 ng/mL hNoggin, TGF-b type 1 inhibitor A-83-01, 100 μg/mL Primocin, 10 μM P38 MAPK inhibitor SB202190.
Bath 1 Buffer consisted of 1 mM MgCl2, 160 mM NaCl, 4.5 mM KCl, 10 mM HEPES, 10 mM Glucose, 2 mM CaCl2).
Chloride Free Buffer consisted of 1 mM Magnesium Gluconate, 2 mM Calcium Gluconate, 4.5 mM Potassium Gluconate, 160 mM Sodium Gluconate, 10 mM HEPES, 10 mM Glucose.
BathI Dye Solution consisted of Bath 1 Buffer, 0.04% Pluronic F127, 20 μM Methyl Oxonol, 30 μM CaCCinh-A01, 30 μM Chicago Sky Blue.
Chloride Free Dye Solution consisted of Chloride Free Buffer, 0.04% Pluronic F127, 20 μM Methyl Oxonol, 30 μM CaCCinh-A01, 30 μM Chicago Sky Blue.
Chloride Free Dye Stimulation Solution consisted of Chloride Free Dye Solution, 10 μM forskolin, 100 μM IBMX, and 300 nM Compound III.
Human intestinal epithelial enteroid cells were obtained from the Hubrecht Institute for Developmental Biology and Stem Cell Research, Utrecht, The Netherlands and expanded in T-Flasks as previously described (Dekkers J F, Wiegerinck C L, de Jonge H R, Bronsveld I, Janssens H M, de Winter-de Groot K M, Brandsma A M, de Jong N W M, Bijvelds M J C, Scholte B J, Nieuwenhuis E E S, van den Brink S, Clevers H, van der Ent C K, Middendorp S and M Beekman J M. A functional CFTR assay using primary cystic fibrosis intestinal organoids. Nat Med. 2013 July;19(7):939-45.).
3. Enteroid Cell Harvesting and Seeding
Cells were recovered in cell recovery solution, collected by centrifugation at 650 rpm for 5 min at 4° C., resuspended in TrypLE and incubated for 5 min at 37° C. Cells were then collected by centrifugation at 650 rpm for 5 min at 4° C. and resuspended in IEMM containing 10 μM ROCK inhibitor (RI). The cell suspension was passed through a 40 μm cell strainer and resuspended at 1×10^6 cells/mL in IEMM containing 10 μM RI. Cells were seeded at 5000 cells/well into multi-well plates and incubated for overnight at 37° C., 95% humidity and 5% CO2 prior to assay.
5. Membrane Potential Dye, Enteroid Assay B
Enteroid cells were incubated with test compound in IEMM for 18-24 hours at 37° C., 95% humidity and 5% CO2. […] Briefly, cells were washed 5 times in Bath 1 Buffer. Bath 1 Dye Solution was added and the cells were incubated for 25 min at room temperature. Following dye incubation, cells were washed 3 times in Chloride Free Dye Solution. Chloride transport was initiated by addition of Chloride Free Dye Stimulation Solution and the fluorescence signal was read for 15 min. […] Chloride transport was then expressed as a percentage of the chloride transport following treatment with 1 μM (14S)-8-[3-(2-{Dispiro[2.0.2.1]heptan-7-yl}ethoxy)-1H-pyrazol-1-yl]-12,12-dimethyl-2λ^6-thia-3,9,11,18,23-pentaazatetracyclo[17.3.1.111,14.05,10]tetracosa-1(22),5,7,9,19(23),20-hexaene-2,2,4-trione, 3 μM (R)-1-(2,2-difluorobenzo[d][1,3]dioxol-5-yl)-N-(1-(2,3-dihydroxypropyl)-6-fluoro-2-(1-hydroxy-2-methylpropan-2-yl)-1H-indol-5-yl)cyclopropanecarboxamide and 300 nM acute N-[2,4-bis(1,1-dimethylethyl)-5-hydroxyphenyl]-1,4-dihydro-4-oxoquinoline-3-carboxamide triple combination control (% Activity).

[1] abbreviates: Table 7, human enteroid cells, 18-24 hours, acute 10 μM forskolin and 300 nM ivacaftor.
The mark [2] stands for this setting: Table 8, human enteroid cells, 18-24 hours, acute 10 μM forskolin and 300 nM ivacaftor.

Where two headings read alike, the source gives them in different places.

CFTR, sequence (P13569 with tags, fused parts or gaps DEL508-508): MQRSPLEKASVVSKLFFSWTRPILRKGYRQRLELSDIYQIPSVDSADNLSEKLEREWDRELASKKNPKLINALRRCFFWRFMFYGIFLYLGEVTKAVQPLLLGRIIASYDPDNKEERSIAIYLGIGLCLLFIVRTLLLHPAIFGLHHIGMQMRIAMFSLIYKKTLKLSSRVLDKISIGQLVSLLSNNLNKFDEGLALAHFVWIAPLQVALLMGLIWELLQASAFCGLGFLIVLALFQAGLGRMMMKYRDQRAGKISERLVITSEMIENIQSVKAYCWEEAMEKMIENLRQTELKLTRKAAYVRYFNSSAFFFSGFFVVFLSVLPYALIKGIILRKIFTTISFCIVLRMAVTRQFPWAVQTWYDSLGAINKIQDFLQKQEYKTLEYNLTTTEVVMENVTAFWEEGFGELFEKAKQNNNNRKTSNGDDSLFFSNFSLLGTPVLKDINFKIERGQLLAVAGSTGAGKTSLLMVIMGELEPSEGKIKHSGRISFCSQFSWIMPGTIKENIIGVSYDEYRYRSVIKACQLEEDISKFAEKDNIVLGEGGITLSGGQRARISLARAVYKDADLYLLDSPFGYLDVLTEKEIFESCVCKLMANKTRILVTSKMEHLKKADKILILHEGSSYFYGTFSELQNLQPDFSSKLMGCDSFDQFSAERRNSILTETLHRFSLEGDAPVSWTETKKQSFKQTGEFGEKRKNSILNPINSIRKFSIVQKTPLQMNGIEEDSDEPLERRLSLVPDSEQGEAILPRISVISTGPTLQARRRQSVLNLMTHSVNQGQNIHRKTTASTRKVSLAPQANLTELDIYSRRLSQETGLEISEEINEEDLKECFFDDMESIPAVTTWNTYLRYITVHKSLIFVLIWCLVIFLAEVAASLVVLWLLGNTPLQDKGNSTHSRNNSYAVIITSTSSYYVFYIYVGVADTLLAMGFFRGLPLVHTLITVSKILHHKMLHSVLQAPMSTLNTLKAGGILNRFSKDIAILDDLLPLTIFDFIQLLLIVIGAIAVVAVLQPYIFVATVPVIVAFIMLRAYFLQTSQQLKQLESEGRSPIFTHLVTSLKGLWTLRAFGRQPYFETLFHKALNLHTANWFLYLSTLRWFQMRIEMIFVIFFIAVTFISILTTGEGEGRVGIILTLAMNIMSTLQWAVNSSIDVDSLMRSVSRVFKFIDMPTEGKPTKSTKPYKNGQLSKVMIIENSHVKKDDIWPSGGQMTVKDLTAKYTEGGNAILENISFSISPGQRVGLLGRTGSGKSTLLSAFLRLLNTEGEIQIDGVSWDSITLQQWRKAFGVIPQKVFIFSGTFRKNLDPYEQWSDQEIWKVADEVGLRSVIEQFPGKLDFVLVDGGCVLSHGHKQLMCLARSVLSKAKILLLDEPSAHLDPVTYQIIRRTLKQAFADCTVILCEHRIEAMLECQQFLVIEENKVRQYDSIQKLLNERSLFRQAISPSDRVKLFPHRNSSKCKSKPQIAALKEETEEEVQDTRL

A word on the EC50: it is the concentration giving half of the maximal effect. As for `Cc1cccc(C)c1-c1cc2nc(n1)NS(=O)(=O)c1cccc(c1)C(=O)N(CCC1(C(F)(F)F)CC1)[C@@H]1CN(C3CC4(CCCCC4)C3)C[C@H]1O2` [Compound 1190, (3R,7R)-19-(2,6-Dimethylphenyl)-5-{spiro[3.5]nonan-2-yl}-8-{2-[1-(trifluoromethyl)cyclopropyl]ethyl}-2-oxa-15λ^6-thia-5,8,16,18,21-pentaazatetracyclo[15.3.1.110,14.03,7]docosa-1(20),10(22),11,13,17(21),18-hexaene-9,15,15-trione], for the setting “Table 9”, the “Ent. B Max Activity (%)” value was “++ (++ is 30-60%)” and the EC50 is < 1000 nM.

As for `Cc1cccc(C)c1-c1cc2nc(n1)NS(=O)(=O)c1cccc(c1)C(=O)N(CCCNC(=O)OC(C)C)[C@H](CC(C)C)CO2` [Compound 408], under “Table 7”, the “Ent. B Max Activity” value is recorded as “+++ (+++ is >60%)”. For the same compound, the EC50 under setting [1] was < 1000 nM.

Turning to `Cc1cccc(C)c1-c1cc2nc(n1)NS(=O)(=O)c1cccc(c1)C(=O)N(CCC(C)(C)C(C)(C)O)[C@H](CC(C)(C)C)CO2` [Compound 334], the “Ent. B Max Activity” value (Table 8) is on record as “+++ (+++ is >60%)”. The EC50 under setting [2] was < 1000 nM.

As for `Cc1cccc(C)c1-c1cc2nc(n1)NS(=O)(=O)c1cccc(c1)C(=O)N(CCCS(C)(=O)=O)[C@H](CC(C)C)CO2` [Compound 389], under “Table 9”, the “Ent. B Max Activity (%)” value is “+++ (+++ is >600%)” and the EC50 was < 1000 nM.

As to `Cc1cccc(C)c1-c1cc2nc(n1)NS(=O)(=O)c1cccc(c1)C(=O)N(CCN(C)C)[C@H](CC(C)C)CO2` [Compound 412], the “Ent. B Max Activity” value (Table 7) was “+++ (+++ is >60%)”. For the same compound, the EC50 under setting [1] was < 1000 nM.

With `Cc1cccc(C)c1-c1cc2nc(n1)NS(=O)(=O)c1cc(nn1C)C(=O)N(Cc1ccncn1)[C@H](CC(C)(C)C)CO2` [Compound 932], under “Table 8”, the “Ent. B Max Activity” value is “+ (+ is <30%)”. The EC50 under setting [2] is < 1000 nM.

For the compound `Cc1cccc(C)c1-c1cc2nc(n1)NS(=O)(=O)c1cccc(c1)C(=O)N(Cc1ccc3c(c1)C(=O)NC3)[C@H](CC(C)(C)C)CO2` [Compound 792], for the setting “Table 9”, the “Ent. B Max Activity (%)” value is recorded as “+++ (+++ is >600%)” and the EC50 is < 1000 nM.

With `Cc1cccc(C)c1-c1cc2nc(n1)NS(=O)(=O)c1cc(nn1C)C(=O)N(Cc1ncccn1)[C@H](CC(C)(C)C)CO2` [Compound 70, (10R)-15-(2,6-Dimethylphenyl)-10-(2,2-dimethylpropyl)-5-methyl-3,3-dioxo-9-(pyrimidin-2-ylmethyl)-12-oxa-3λ^6-thia-2,5,6,9,16,17-hexazatricyclo[11.3.1.14,7]octadeca-1(17),4(18),6,13,15-pentaen-8-one], the “Ent. B Max Activity” value (Table 8) is given as “++ (++ is 30-60%)”. Besides, under setting [2], the EC50 was < 1000 nM.

Turning to `Cc1cccc(C)c1-c1cc2nc(n1)NS(=O)(=O)c1cccc(c1)C(=O)N(Cc1ncccn1)[C@H](CCC(C)(C)O)CO2` [Compound 659], for the setting “Table 8”, the “Ent. B Max Activity” value is recorded as “++ (++ is 30-60%)”. Further, under setting [2], the EC50 was in the range of 1000 to 3000 nM.

Regarding `Cc1cccc(C)c1-c1cc2nc(n1)NS(=O)(=O)c1cccc(c1)C(=O)N(CC#N)[C@H](CC(C)C)CO2` [Compound 1104], the “Ent. B Max Activity” value (Table 7) is “+++ (+++ is >60%)”. Also, the EC50 under setting [1] was < 1000 nM.

As for `Cc1cccc(C)c1-c1cc2nc(n1)NS(=O)(=O)c1cccc(c1)C(=O)N(Cc1ccnc(NC(=O)OC(C)C)c1)[C@H](CC(C)(C)C)CO2` [Compound 1088], where the note is “Table 8”, the “Ent. B Max Activity” value is “+++ (+++ is >60%)”. The EC50 under setting [2] is < 1000 nM.

For `Cc1cccc(C)c1-c1cc2nc(n1)NS(=O)(=O)c1cc(n(C)n1)C(=O)N(Cc1cnccn1)[C@H](CC(C)(C)C)CO2` [Compound 921], for the setting “Table 8”, the “Ent. B Max Activity” value was “+++ (+++ is >60%)”. Moreover, under setting [2], the EC50 was < 1000 nM.

In the case of `Cc1cccc(C)c1-c1cc2nc(n1)NS(=O)(=O)c1cccc(c1)C(=O)N(CC(C)(C)C)[C@H](CC(C)C)CO2` [Compound 400], the “Ent. B Max Activity” value (Table 8) is given as “++ (++ is 30-60%)”. Moreover, the EC50 under setting [2] is < 1000 nM.

In the case of `Cc1cccc(C)c1-c1cc2nc(n1)NS(=O)(=O)c1cccc(c1)C(=O)N(CCS(C)(=O)=O)[C@H](CC(C)C)CO2` [Compound 388], for the setting “Table 9”, the “Ent. B Max Activity (%)” value is recorded as “+++ (+++ is >600%)” and the EC50 was < 1000 nM.

For the compound `Cc1cccc(C)c1-c1cc2nc(n1)NS(=O)(=O)c1cccc(c1)C(=O)N(Cc1ccc3c(c1)oc(=O)n3C)[C@H](CC(C)(C)C)CO2` [Compound 802], where the note is “Table 9”, the “Ent. B Max Activity (%)” value is “+++ (+++ is >600%)” and the EC50 is < 1000 nM.

With `CC(=O)Nc1cccc(CN2C(=O)c3cccc(c3)S(=O)(=O)Nc3nc(cc(-c4c(C)cccc4C)n3)OC[C@H]2CC(C)(C)C)n1` [Compound 391], where the note is “Table 9”, the “Ent. B Max Activity (%)” value was “+++ (+++ is >600%)” and the EC50 was < 1000 nM.

In the case of `Cc1cccc(C)c1-c1cc2nc(n1)NS(=O)(=O)c1cccc(c1)C(=O)N(C)CC(c1ccc(CC3(C(F)(F)F)CC3)cn1)O2` (single isomer, unassigned) [Compound 105, 6-(2,6-dimethylphenyl)-12-methyl-10-(5-{[1-(trifluoromethyl)cyclopropyl]methyl}pyridin-2-yl)-9-oxa-2λ^6-thia-3,5,12,19-tetraazatricyclo[12.3.1.14,8]nonadeca-1(17),4(19),5,7,14(18),15-hexaene-2,2,13-trione], the “Ent. B Max Activity” value (Table 8) was “+ (+ is <30%)”. The EC50 under setting [2] is < 1000 nM.

In the case of `Cc1cnc(CN2C(=O)c3cc(nn3C)S(=O)(=O)Nc3nc(cc(-c4c(C)cccc4C)n3)OC[C@H]2CC(C)(C)C)nc1` [Compound 924], under “Table 9”, the “Ent. B Max Activity (%)” value is listed as “+++ (+++ is >600%)” and the EC50 was < 1000 nM.

For `Cc1cccc(C)c1-c1cc2nc(n1)NS(=O)(=O)c1cccc(n1)C(=O)N(Cc1ccccn1)[C@H](CC(C)(C)C)CO2` [Compound 1084], the “Ent. B Max Activity” value (Table 8) was “+++ (+++ is >60%)”. In addition, the EC50 under setting [2] was < 1000 nM.

For the compound `Cc1cccc(C)c1-c1cc2nc(n1)NS(=O)(=O)c1cccc(c1)C(=O)N(CCN(C)C(=O)OC(C)C)[C@H](CC(C)C)CO2` [Compound 91, Isopropyl N-[2-[(11R)-6-(2,6-dimethylphenyl)-11-isobutyl-2,2,13-trioxo-9-oxa-2λ^6-thia-3,5,12,19-tetrazatricyclo[12.3.1.14,8]nonadeca-1(18),4(19),5,7,14,16-hexaen-12-yl]ethyl]-N-methyl-carbamate], the “Ent. B Max Activity” value (Table 7) is listed as “+++ (+++ is >60%)”. Further, the EC50 under setting [1] is < 1000 nM.

Regarding `Cc1cccc(C)c1-c1cc2nc(n1)NS(=O)(=O)c1cccc(c1)C(=O)N(Cc1ncccn1)[C@H](CC(C)(C)O)CO2` [Compound 658], for the setting “Table 8”, the “Ent. B Max Activity” value is listed as “+++ (+++ is >60%)”. Moreover, the EC50 under setting [2] lay in the range of 1000 to 3000 nM.

As for `Cc1cccc(C)c1-c1cc2nc(n1)NS(=O)(=O)c1cc(nn1C)C(=O)N(Cc1cccnn1)[C@H](CC(C)(C)C)CO2` [Compound 931], the “Ent. B Max Activity” value (Table 8) is listed as “+ (+ is <30%)”. Further, the EC50 under setting [2] lay in the range of 1000 to 3000 nM.

For `CC(=O)N(C)CCN1C(=O)c2cccc(c2)S(=O)(=O)Nc2nc(cc(-c3c(C)cccc3C)n2)OC[C@H]1CC(C)C` [Compound 405], the “Ent. B Max Activity” value (Table 8) is “+++ (+++ is >60%)”. For the same compound, the EC50 under setting [2] was < 1000 nM.

Regarding `Cc1cccc(C)c1-c1cc2nc(n1)NS(=O)(=O)c1cccc(c1)C(=O)N(Cc1ccc(-c3cn[nH]c3)cc1)[C@H](CC(C)(C)C)CO2` [Compound 317], for the setting “Table 9”, the “Ent. B Max Activity (%)” value is on record as “+++ (+++ is >600%)” and the EC50 is < 1000 nM.
